“Also recorded” adds a separate entry of the source. Read-outs that look alike come from different tables or passages of the source. One block for each molecule: values may come before it.
Legend:
[1] = biological target: T1, ROCK1 (Homo sapiens, UniProt Q13464); test: ROCK1 protein kinase assay (Kinase-Glo Luminescent Kinase Assay); type: biochemical
T1 construct: purchased Invitrogen; Thermo Fisher Scientific
Method: (§1) Dose response analyses were conducted to establish IC50 values, which were converted to Ki values using the Cheng-Prusoff Equation Ki = IC50/(1 + ([ATP]/Km ATP).

[2] = tested on: HTM cell-encapsulated ECM hydrogels; test: HTM hydrogel contraction analysis after TGFβ2 induction and ROCKi rescue; type: cell-based, human; settings: for HTM hydrogel contraction reversal compared with 10 µM Y27632 / Concentrations giving significantly decreased HTM hydrogel contraction compared to the TGFβ2 group / EC50: HTM07; for Concentrations giving significantly decreased HTM hydrogel contraction compared to the TGFβ2 group: dose range 0.0001-1.0 µM, 5-10 d; for EC50 / Increase of HTM hydrogel contraction over controls: TGFβ2 2.5 ng/ml 0-5 d; for EC50: then ROCKi 0.0001-1.0 µM 5-10 d, read-out: EC50, reduction of TGFβ2-induced HTM hydrogel contraction
Method: HTM cells (1.0 × 10^6 cells/ml) were thoroughly mixed with MA-COL (3.6 mg/ml), SH-HA (0.5 mg/ml, 0.025% (w/v) photoinitiator) and SH-ELP (2.5 mg/ml) on ice ( Supplementary Figure 2A ), followed by pipetting 10 μl droplets of the HTM cell-laden hydrogel precursor solution onto polydimethylsiloxane-coated (PDMS; Sylgard 184; Dow Corning) 24-well culture plates ( Supplementary Figure 2B ), according to our established protocols ([32]–[34]). Alternatively, 30 µl droplets of the HTM cell-laden hydrogel precursor solution were pipetted onto Surfasil-coated (Fisher Scientific) 18 × 18-mm square glass coverslips followed by placing a regular 12-mm round glass coverslip onto the hydrogels to facilitate even spreading of the polymer solution. HTM hydrogels were crosslinked by exposure to UV light (OmniCure S1500 UV Spot Curing System; Excelitas Technologies, Mississauga, Ontario, Canada) at 320-500 nm, 2.2 W/cm^2 for 5 s. The HTM hydrogel-adhered coverslips were removed with fine-tipped tweezers and placed hydrogel-side facing up in PDMS-coated 24-well culture plates ( Supplementary Figure 2C ).
Longitudinal brightfield images of HTM hydrogels subjected to the different treatments were acquired at 0 d and 10 d with an Eclipse Ti microscope (Nikon Instruments, Melville, NY, USA). Construct area was measured using Fiji software (National Institutes of Health (NIH), Bethesda, MD, USA) and normalized to 0 d followed by normalization to controls.

[3] = tested on: normotensive Dutch Belted rabbits; parameters: method as in unpublished data; settings: ref unpublished data; cited from earlier work
[4] = tested on: transformed HTM cells (TM-1); test: Cell-based assay measuring disruption of focal adhesions (paxillin staining); parameters: species or system human; settings: 6 h, TM-1 cells on fibronectin-coated glass, Mean ± SEM, N ≥ 3
Method: Cell-based assays measuring disruption of focal adhesions were conducted using transformed HTM cells (TM-1; kind gift from Donna Peters; Department of Ophthalmology and Visual Sciences, University of Wisconsin), as previously described ([39]). […] TM-1 cells were stained with an anti-paxillin primary antibody followed by incubation with an Alexa Fluor-488 fluorescent secondary antibody and Hoechst 33342 counterstain (all from Invitrogen) to reveal focal adhesions and nuclei, respectively. Images were collected on an INCell 1000 imager (GE Healthcare, Marlborough, MA, USA), and total area of focal adhesions was measured using a custom algorithm developed using the INCell Developer Toolbox, v1.6. Dose response analyses were conducted to establish IC50 values.

[5] = tested on: F-actin stress fibers in hydrogel-encapsulated HTM cells; test: HTM hydrogel immunocytochemistry, F-actin stress fibers; type: cell-based, human; settings: for Effect on TGFβ2-induced F-actin stress fibers vs. TGFβ2 group: HTM05, HTM07, HTM36
Method: Alternatively, 30 µl droplets of the HTM cell-laden hydrogel precursor solution were pipetted onto Surfasil-coated (Fisher Scientific) 18 × 18-mm square glass coverslips followed by placing a regular 12-mm round glass coverslip onto the hydrogels to facilitate even spreading of the polymer solution. HTM hydrogels were crosslinked by exposure to UV light (OmniCure S1500 UV Spot Curing System; Excelitas Technologies, Mississauga, Ontario, Canada) at 320-500 nm, 2.2 W/cm^2 for 5 s. The HTM hydrogel-adhered coverslips were removed with fine-tipped tweezers and placed hydrogel-side facing up in PDMS-coated 24-well culture plates ( Supplementary Figure 2C ).
Nuclei were counterstained with 4′,6′-diamidino-2-phenylindole (DAPI; Abcam). Coverslips were mounted with ProLong™ Gold Antifade (Invitrogen) on Superfrost™ microscope slides (Fisher Scientific), and fluorescent images were acquired with a Zeiss LSM 780 confocal microscope (Zeiss, Germany). […] Individual z-stacks consisted of 7 slices with the z-step interval set to […]. Fluorescence signal intensity of F-actin and αSMA were determined using Z-project maximum intensity projections in Fiji (NIH) with image background subtraction.

[6] = tested on: cellular esterases; settings: stated in discussion, no reference given; cited from earlier work
[7] = biological target: ROCK1/2; test: ROCK1/2 kinase assays, average of both isoforms; type: biochemical, human; settings: average of ROCK1 and ROCK2 Ki
Method: as §1

[8] = biological target: T2, ROCK2 (Homo sapiens, UniProt O75116); test: ROCK2 protein kinase assay (Kinase-Glo Luminescent Kinase Assay); type: biochemical
T2 construct: purchased Invitrogen; Thermo Fisher Scientific
Method: as §1

[9] = stated in discussion, no reference given; cited from earlier work
[10] = tested on: transformed HTM cells (TM-1); settings: same cell-based assay; ref [13]; read-out: IC50 of Y27632, HTM cell focal adhesion disruption; cited from earlier work
[11] = biological target: ROCK1/2; settings: same biochemical assay; ref [13]; read-out: Ki of Y27632; cited from earlier work
[12] = each compound at its respective EC50, HTM05, HTM07, HTM36
[13] = each compound at its respective EC50
[14] = each compound at its respective EC50, across HTM05, HTM07, HTM36, 10 d
[15] = each compound at its respective EC50, pooled HTM05, HTM07, HTM36, 10 d
[16] = TGFβ2 induction group, across three cell strains

T1 sequence (Q13464 whole entry): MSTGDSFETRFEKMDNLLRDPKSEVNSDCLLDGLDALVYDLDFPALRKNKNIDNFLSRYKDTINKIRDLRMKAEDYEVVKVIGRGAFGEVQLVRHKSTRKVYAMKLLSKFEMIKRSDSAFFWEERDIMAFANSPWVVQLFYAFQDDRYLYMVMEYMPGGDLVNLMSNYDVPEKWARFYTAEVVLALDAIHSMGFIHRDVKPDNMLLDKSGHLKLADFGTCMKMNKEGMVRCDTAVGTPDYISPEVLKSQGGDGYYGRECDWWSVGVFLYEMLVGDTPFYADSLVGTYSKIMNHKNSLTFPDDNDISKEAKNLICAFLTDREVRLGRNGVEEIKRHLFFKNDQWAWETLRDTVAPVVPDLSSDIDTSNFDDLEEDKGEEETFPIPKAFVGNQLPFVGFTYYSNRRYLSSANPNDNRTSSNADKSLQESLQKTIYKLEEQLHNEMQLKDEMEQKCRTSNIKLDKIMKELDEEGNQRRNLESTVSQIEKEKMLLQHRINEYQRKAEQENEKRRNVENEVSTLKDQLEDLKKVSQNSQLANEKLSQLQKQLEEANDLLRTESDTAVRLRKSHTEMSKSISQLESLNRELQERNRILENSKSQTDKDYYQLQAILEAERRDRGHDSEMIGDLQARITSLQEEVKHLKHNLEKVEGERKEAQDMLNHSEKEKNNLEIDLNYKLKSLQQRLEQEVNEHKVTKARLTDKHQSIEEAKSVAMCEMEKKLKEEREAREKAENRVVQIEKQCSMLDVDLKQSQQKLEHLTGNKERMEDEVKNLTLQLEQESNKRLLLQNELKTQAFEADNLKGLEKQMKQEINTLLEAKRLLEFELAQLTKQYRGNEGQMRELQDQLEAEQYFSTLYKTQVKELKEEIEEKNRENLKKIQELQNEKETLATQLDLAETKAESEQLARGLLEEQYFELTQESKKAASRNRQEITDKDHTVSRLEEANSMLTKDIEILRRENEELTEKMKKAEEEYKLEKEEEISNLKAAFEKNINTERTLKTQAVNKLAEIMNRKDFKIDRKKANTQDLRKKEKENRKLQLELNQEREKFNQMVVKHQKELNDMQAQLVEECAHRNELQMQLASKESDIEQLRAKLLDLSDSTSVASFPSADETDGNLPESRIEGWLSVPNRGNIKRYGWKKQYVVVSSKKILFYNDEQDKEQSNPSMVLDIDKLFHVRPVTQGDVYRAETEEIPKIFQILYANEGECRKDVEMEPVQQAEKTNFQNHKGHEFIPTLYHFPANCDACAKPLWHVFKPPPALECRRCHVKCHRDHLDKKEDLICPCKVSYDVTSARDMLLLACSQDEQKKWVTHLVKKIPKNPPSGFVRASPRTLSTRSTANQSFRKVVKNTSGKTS
T2 sequence (O75116 whole entry): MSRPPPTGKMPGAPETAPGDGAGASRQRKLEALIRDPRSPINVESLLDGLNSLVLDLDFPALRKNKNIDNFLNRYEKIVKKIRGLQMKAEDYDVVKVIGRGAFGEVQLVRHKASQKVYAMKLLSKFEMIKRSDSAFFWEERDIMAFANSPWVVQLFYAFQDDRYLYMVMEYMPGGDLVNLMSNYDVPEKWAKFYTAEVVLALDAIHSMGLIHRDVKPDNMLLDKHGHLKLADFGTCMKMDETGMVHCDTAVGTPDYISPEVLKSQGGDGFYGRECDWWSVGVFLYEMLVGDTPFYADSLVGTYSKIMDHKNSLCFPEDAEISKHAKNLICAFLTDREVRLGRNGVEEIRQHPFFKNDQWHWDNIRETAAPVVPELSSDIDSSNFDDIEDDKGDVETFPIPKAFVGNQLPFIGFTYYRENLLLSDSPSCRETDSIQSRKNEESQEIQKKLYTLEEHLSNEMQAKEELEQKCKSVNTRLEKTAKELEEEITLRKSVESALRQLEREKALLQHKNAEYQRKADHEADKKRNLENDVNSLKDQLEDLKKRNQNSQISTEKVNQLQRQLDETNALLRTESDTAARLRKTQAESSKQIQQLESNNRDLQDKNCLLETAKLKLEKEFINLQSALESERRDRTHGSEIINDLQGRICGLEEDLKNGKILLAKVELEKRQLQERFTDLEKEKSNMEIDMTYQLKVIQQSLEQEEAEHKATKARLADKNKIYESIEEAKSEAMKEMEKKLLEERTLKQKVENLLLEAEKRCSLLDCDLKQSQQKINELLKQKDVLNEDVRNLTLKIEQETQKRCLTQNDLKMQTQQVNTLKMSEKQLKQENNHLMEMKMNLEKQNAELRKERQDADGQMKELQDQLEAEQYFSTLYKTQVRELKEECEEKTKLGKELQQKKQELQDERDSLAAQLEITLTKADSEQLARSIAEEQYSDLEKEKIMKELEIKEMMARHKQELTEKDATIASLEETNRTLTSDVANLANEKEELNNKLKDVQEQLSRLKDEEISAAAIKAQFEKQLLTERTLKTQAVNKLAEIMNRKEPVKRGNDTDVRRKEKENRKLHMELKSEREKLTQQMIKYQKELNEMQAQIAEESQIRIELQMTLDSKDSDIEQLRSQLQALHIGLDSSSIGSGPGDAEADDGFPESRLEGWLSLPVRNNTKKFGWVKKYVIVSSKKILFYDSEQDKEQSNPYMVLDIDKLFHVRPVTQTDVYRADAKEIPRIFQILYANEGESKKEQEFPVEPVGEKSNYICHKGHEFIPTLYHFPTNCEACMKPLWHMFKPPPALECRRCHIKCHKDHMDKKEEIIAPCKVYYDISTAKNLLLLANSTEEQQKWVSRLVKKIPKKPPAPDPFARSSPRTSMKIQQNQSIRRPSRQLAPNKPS

Molecule: C[C@@H](N)[C@H]1CC[C@H](C(=O)Nc2ccncc2)CC1 [Compound Y27632, Y27632]
IC50 [10]: ~1740 nM | Ki [11]: ~31.5 nM

Molecule: Cc1ccc(C(=O)OCc2ccc([C@@H](CN)C(=O)Nc3ccc4cnccc4c3)cc2)c(C)c1 [Netarsudil]
Effect on TGFβ2-induced HTM hydrogel contraction, overall across HTM07 and HTM36 [2]: significantly decreased | EC50 [2]: 35.9 nM | HTM hydrogel contraction reversal compared with 10 µM Y27632 ([2]; compound at 0.1 µM): equivalent | HTM hydrogel contraction reversal compared with 10 µM Y27632 ([2]; compound at 1.0 µM): significantly more potent | Concentrations giving significantly decreased HTM hydrogel contraction compared to the TGFβ2 group [2]: ≥ 0.01 µM | Difference in efficacy, netarsudil 1.0 µM vs. 35.9 nM ([2]; HTM hydrogel contraction, across three cell strains): ~ 1.2 fold | Effect on TGFβ2-induced HTM hydrogel contraction vs. TGFβ2 group [2, 12]: significantly decreased | IC50 [4]: 17 ± 2 nM | IC50 ([4]; listed as netarsudil): ~17 nM | Effect on TGFβ2-induced F-actin stress fibers vs. TGFβ2 group [5, 13]: significantly decreased | Effect on F-actin signal ([5]; max level netarsudil, 1.0 µM): nearly abolishing the F-actin signal | Ki [7]: ~2.7 nM

B1: TGFβ2: transforming growth factor beta 2, used to induce a glaucoma-like cell phenotype (protein, UniProt P61812 303-414, looked up)
Transforming growth factor …: ALDAAYCFRNVQDNCCLRPLYIDFKRDLGWKWIHEPKGYNANFCAGACPYLWSSDTQHSRVLSLYNTINPEASASPCCVSQDLEPLTILYYIGKTPKIEQLSNMIVKSCKCS
Increase of HTM hydrogel contraction over controls ([2]; HTM05, HTM07, HTM36): ~ 25% | Increase of HTM hydrogel contraction over controls ([2]; HTM07 and HTM36, higher passage cells): ~ 15% | Relative hydrogel size vs. controls [2, 16]: ~ 75% | Relative F-actin signal fold-change vs. controls [5, 16]: ~ 1.9 fold-change

The next lines start with results.

Ki [1]: 1.5 ± 0.7 nM | EC50 ([2]; Homo sapiens, HTM): 3.7 nM | IC50 ([4]; Homo sapiens): ~15 nM | Ki [7]: ~1.4 nM
Molecule: NC[C@@H](C(=O)Nc1ccc2cnccc2c1)c1ccc(COC(=O)c2ccccc2)cc1 [Compound A]
HTM hydrogel contraction reversal compared with 10 µM Y27632 ([2]; compound at 1.0 µM): not different | Concentrations giving significantly decreased HTM hydrogel contraction compared to the TGFβ2 group [2]: ≥ 0.01 µM | Effect on TGFβ2-induced HTM hydrogel contraction vs. TGFβ2 group [2, 12]: failed to reverse | Effect on TGFβ2-induced HTM hydrogel contraction, HTM36 ([2]; uniform ROCKi concentration of 35.9 nM, HTM36): significantly decreased | Intraocular pressure lowering [3]: did not perform as well; also recorded: unable to significantly lower intraocular pressure | Effect on TGFβ2-induced F-actin stress fibers vs. TGFβ2 group [5, 13]: not different from TGFβ2 | Metabolism by cellular esterases (ester hydrolysis) [6]: more quickly metabolized than netarsudil

Ki [1]: 1.7 nM | EC50 ([2]; Homo sapiens, HTM): 22.2 nM | Ki [7]: ~1.9 nM | Ki [8]: 2 nM
Molecule: NC[C@@H](C(=O)Nc1ccc2cnccc2c1Cl)c1ccccc1 [Compound B]
Concentrations giving significantly decreased HTM hydrogel contraction compared to the TGFβ2 group [2]: ≥ 0.1 µM | Effect on TGFβ2-induced HTM hydrogel contraction vs. TGFβ2 group [2, 12]: significantly decreased TGFβ2-induced HTM hydrogel contraction using HTM05 and HTM36 cells | Relative hydrogel size vs. controls [2, 14]: ~ 105% | Intraocular pressure lowering [3]: did not perform as well as netarsudil | Effect on TGFβ2-induced F-actin stress fibers vs. TGFβ2 group [5, 13]: significantly decreased | Relative F-actin signal fold-change vs. controls [5, 15]: ~ 1.1 fold-change | Metabolism by cellular esterases (ester hydrolysis) [6]: cannot be metabolized by cellular esterases at all

Ki [1]: 1.8 ± 0.3 nM | EC50 ([2]; Homo sapiens, HTM): 6.7 nM | IC50 ([4]; Homo sapiens): ~5.6 nM | Ki [7]: ~1.5 nM | Ki [8]: 1.2 ± 0.4 nM
Molecule: NC[C@@H](C(=O)Nc1ccc2cnccc2c1)c1ccc(Cl)cc1 [Compound C]
HTM hydrogel contraction reversal compared with 10 µM Y27632 ([2]; compound at 1.0 µM): comparable | Concentrations giving significantly decreased HTM hydrogel contraction compared to the TGFβ2 group [2]: ≥ 0.01 µM | Effect on TGFβ2-induced HTM hydrogel contraction vs. TGFβ2 group [2, 12]: failed to rescue | Relative hydrogel size vs. controls [2, 14]: ~ 87% | Intraocular pressure lowering [3]: did not perform as well; also recorded: unable to significantly lower intraocular pressure | Effect on TGFβ2-induced F-actin stress fibers vs. TGFβ2 group [5, 13]: significantly different from TGFβ2 | Relative F-actin signal fold-change vs. controls [5, 15]: ~ 1.3 fold-change | Metabolism by cellular esterases (ester hydrolysis) [6]: cannot be metabolized by cellular esterases at all

Ki [1]: 4.5 ± 2 nM | EC50 ([2]; Homo sapiens, HTM): 123 nM | IC50 ([4]; Homo sapiens): ~193 nM | Ki [7]: ~3.1 nM | Ki [8]: 1.7 ± 0.7 nM
Molecule: NC[C@@H](C(=O)Nc1ccc2cnccc2c1)c1ccc(O)cc1 [Compound D]
Concentrations giving significantly decreased HTM hydrogel contraction compared to the TGFβ2 group [2]: ≥ 0.1 µM | Effect on TGFβ2-induced HTM hydrogel contraction vs. TGFβ2 group [2, 12]: significantly decreased | Relative hydrogel size vs. controls [2, 14]: ~ 96% | Intraocular pressure lowering [3]: did not perform as well as netarsudil | Effect on TGFβ2-induced F-actin stress fibers vs. TGFβ2 group [5, 13]: significantly decreased TGFβ2-induced F-actin stress fibers across all three HTM cell strains | Relative F-actin signal fold-change vs. controls [5, 15]: ~ 0.8 fold-change | Ionization at physiological pH [9]: partially ionized at physiological pH
